In brackets after ≈: the same amount, converted by molar mass. Read-outs that look alike come from different tables or passages of the source. Where only a bound is given, the exact number is not on record here.

For data set [1], the system named is retinoic acid receptor (RAR) family: RARα, RARβ, and RARγ. The note with it: cited from earlier work.
Data set [2] is described as follows: Physicochemical properties of tazarotene.
The conditions of data set [3]: cited from earlier work.

In the case of `CC1(C)CCSc2ccc(C#Cc3ccc(C(=O)O)cn3)cc21` [Tazarotenic acid], in data set [1], the “binding to RARα, RARβ and RARγ” value is reported as “binds to all three members”; the “selectivity among RARs” value is “relative selectivity for RARβ, and RARγ”.

Take `CCOC(=O)c1ccc(C#Cc2ccc3c(c2)C(C)(C)CCS3)nc1` [Tazarotene, Ethyl 6-[(4,4-dimethylthiochroman-6-yl)ethynyl]nicotinate]: the “crystalline drug by DSC or PXRD analysis” value in data set [2] (at 1% or at 4% in Compritol) was “no crystalline drug was detected”. Also, the solubility is 7400 µg/mL (≈ 21.1 mM) in data set [2] (isopropyl myristate, oil or lipid, read-out: Solubility in isopropyl myristate) and less than 1 µg/mL in data set [2] (water, read-out: Solubility in water). Moreover, the pKa in data set [3] is recorded as 1.5^(1).

One may read the solubility as the concentration that dissolves in the medium under given conditions.

These data come from US20150209343A1, “TOPICAL DERMAL COMPOSITIONS” (Allergan, Inc., priority 2014, published 2015).
